Assay results published in ChEMBL document CHEMBL1201862, “PubChem BioAssay data set” (2004).
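Following 48 hours of exposure in 96-well plates, responses at five concentrations were used to interpolate endpoints linearly. At the GI50, growth is halved.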 Active and inactive are the calls of the source. Rule as the data show it: active = GI50 up to about 1.1 µM and inactive = higher.

How the values were obtained:
Experiment in all cases: inhibition of tumour cell growth, NCI panel, 48 h
OVCAR-3 = test system: OVCAR-3
MDA-MB-435 = test system: MDA-MB-435
PC-3 = test system: PC-3
HOP-92 = test system: HOP-92
SF-268 = test system: SF-268
RPMI-8226 = test system: RPMI-8226
SF-539 = test system: SF-539
DU-145 = test system: DU-145
Malme-3M = test system: Malme-3M
NCI-H522 = test system: NCI-H522
SR = test system: SR
NCI-H226 = test system: NCI-H226
OVCAR-5 = test system: OVCAR-5
CAKI-1 = test system: CAKI-1
MDA-MB-231 = test system: MDA-MB-231
SK-OV-3 = test system: SK-OV-3
UACC-62 = test system: UACC-62
HL-60 = test system: HL-60
MDA-N = test system: MDA-N
SK-MEL-28 = test system: SK-MEL-28
CCRF-CEM = test system: CCRF-CEM
786-0 = test system: 786-0
HCT-116 = test system: HCT-116
SK-MEL-5 = test system: SK-MEL-5
ACHN = test system: ACHN
U-251 = test system: U-251
T47D = test system: T47D
SW-620 = test system: SW-620
K562 = test system: K562
SN12C = test system: SN12C
BT-549 = test system: BT-549
HOP-62 = test system: HOP-62
HT-29 = test system: HT-29
TK-10 = test system: TK-10
HCT-15 = test system: HCT-15
A549 = test system: A549
UO-31 = test system: UO-31
NCI/ADR-RES = test system: NCI/ADR-RES
MOLT-4 = test system: MOLT-4
LOX IMVI = test system: LOX IMVI
IGROV-1 = test system: IGROV-1
M14 = test system: M14
KM12 = test system: KM12
EKVX = test system: EKVX
OVCAR-4 = test system: OVCAR-4
NCI-H23 = test system: NCI-H23
SNB-19 = test system: SNB-19
MCF7 = test system: MCF7
SF-295 = test system: SF-295
A498 = test system: A498
OVCAR-8 = test system: OVCAR-8
Hs-578T = test system: Hs-578T
SK-MEL-2 = test system: SK-MEL-2
COLO 205 = test system: COLO 205
SNB-75 = test system: SNB-75
NCI-H460 = test system: NCI-H460
RXF 393 = test system: RXF 393
HCC 2998 = test system: HCC 2998
UACC-257 = test system: UACC-257

Q: With CO/N=C1\CCC2(O)C3Cc4ccc(O)c5c4C2(CCN3CC2CC2)[C@H]1O5 (stereo partly specified) as the compound, how does the GI50 (OVCAR-3) read?
A: > 100 µM (inactive)

Q: What about the GI50 (MDA-MB-435) of the same compound?
A: > 100 µM (inactive)

Q: And the GI50 (PC-3)?
A: > 100 µM (inactive)

Q: And the GI50 (HOP-92)?
A: > 100 µM (inactive)

Q: And the GI50 (SF-268)?
A: > 100 µM (inactive)

Q: And the GI50 (RPMI-8226)?
A: > 100 µM (inactive)

Q: And the GI50 (SF-539)?
A: > 100 µM (inactive)

Q: And the GI50 (DU-145)?
A: > 100 µM (inactive)

Q: What about the GI50 (Malme-3M) of the same compound?
A: > 100 µM (inactive)

Q: What about the GI50 (NCI-H522) of the same compound?
A: > 100 µM (inactive)

Q: And the GI50 (SR)?
A: > 100 µM (inactive)

Q: And the GI50 (NCI-H226)?
A: > 100 µM (inactive)

Q: What about the GI50 (OVCAR-5) of the same compound?
A: > 100 µM (inactive)

Q: What about the GI50 (CAKI-1) of the same compound?
A: > 100 µM (inactive)

Q: And the GI50 (MDA-MB-231)?
A: > 100 µM (inactive)

Q: What about the GI50 (SK-OV-3) of the same compound?
A: > 100 µM (inactive)

Q: And the GI50 (UACC-62)?
A: > 100 µM (inactive)

Q: What about the GI50 (HL-60) of the same compound?
A: > 100 µM (inactive)

Q: What about the GI50 (MDA-N) of the same compound?
A: > 100 µM (inactive)

Q: What about the GI50 (SK-MEL-28) of the same compound?
A: > 100 µM (inactive)

Q: What about the GI50 (CCRF-CEM) of the same compound?
A: > 100 µM (inactive)

Q: What about the GI50 (786-0) of the same compound?
A: > 100 µM (inactive)

Q: What about the GI50 (HCT-116) of the same compound?
A: > 100 µM (inactive)

Q: What about the GI50 (SK-MEL-5) of the same compound?
A: > 100 µM (inactive)

Q: What about the GI50 (ACHN) of the same compound?
A: > 100 µM (inactive)

Q: What about the GI50 (U-251) of the same compound?
A: > 100 µM (inactive)

Q: And the GI50 (T47D)?
A: > 100 µM (inactive)

Q: What about the GI50 (SW-620) of the same compound?
A: > 100 µM (inactive)

Q: What about the GI50 (K562) of the same compound?
A: > 100 µM (inactive)

Q: What about the GI50 (SN12C) of the same compound?
A: > 100 µM (inactive)

Q: What about the GI50 (BT-549) of the same compound?
A: > 100 µM (inactive)

Q: What about the GI50 (HOP-62) of the same compound?
A: > 100 µM (inactive)

Q: And the GI50 (HT-29)?
A: > 100 µM (inactive)

Q: What about the GI50 (TK-10) of the same compound?
A: > 100 µM (inactive)

Q: What about the GI50 (HCT-15) of the same compound?
A: > 100 µM

Q: And the GI50 (A549)?
A: > 100 µM (inactive)

Q: What about the GI50 (UO-31) of the same compound?
A: > 100 µM (inactive)

Q: And the GI50 (NCI/ADR-RES)?
A: > 100 µM (inactive)

Q: What about the GI50 (MOLT-4) of the same compound?
A: > 100 µM (inactive)

Q: What about the GI50 (LOX IMVI) of the same compound?
A: > 100 µM (inactive)

Q: What about the GI50 (IGROV-1) of the same compound?
A: > 100 µM (inactive)

Q: And the GI50 (M14)?
A: > 100 µM (inactive)

Q: And the GI50 (KM12)?
A: > 100 µM (inactive)

Q: What about the GI50 (EKVX) of the same compound?
A: > 100 µM (inactive)

Q: What about the GI50 (OVCAR-4) of the same compound?
A: > 100 µM (inactive)

Q: What about the GI50 (NCI-H23) of the same compound?
A: > 100 µM (inactive)

Q: And the GI50 (SNB-19)?
A: > 100 µM (inactive)

Q: What about the GI50 (MCF7) of the same compound?
A: > 100 µM (inactive)

Q: What about the GI50 (SF-295) of the same compound?
A: > 100 µM (inactive)

Q: What about the GI50 (A498) of the same compound?
A: > 100 µM (inactive)

Q: And the GI50 (OVCAR-8)?
A: > 100 µM (inactive)

Q: What about the GI50 (Hs-578T) of the same compound?
A: > 100 µM (inactive)

Q: What about the GI50 (SK-MEL-2) of the same compound?
A: > 100 µM (inactive)

Q: What about the GI50 (COLO 205) of the same compound?
A: > 100 µM (inactive)

Q: For CCOC(=O)/C=C(/C=C\COC1CCCCO1)c1ccccc1 (stereo unspecified), which GI50 (OVCAR-3) is on record?
A: 29.2 µM (inactive)

Q: What about the GI50 (MDA-MB-435) of the same compound?
A: 25.2 µM (inactive)

Q: And the GI50 (SNB-75)?
A: 23.4 µM (inactive)

Q: What about the GI50 (PC-3) of the same compound?
A: 35.6 µM (inactive)

Q: What about the GI50 (SF-268) of the same compound?
A: 32.1 µM (inactive)

Q: And the GI50 (RPMI-8226)?
A: 27.5 µM (inactive)

Q: And the GI50 (DU-145)?
A: 40 µM (inactive)

Q: And the GI50 (Malme-3M)?
A: 84.7 µM (inactive)

Q: And the GI50 (NCI-H522)?
A: 21.7 µM (inactive)

Q: And the GI50 (SR)?
A: 18.8 µM (inactive)

Q: What about the GI50 (NCI-H226) of the same compound?
A: 70.6 µM (inactive)

Q: And the GI50 (OVCAR-5)?
A: 96.2 µM (inactive)

Q: What about the GI50 (CAKI-1) of the same compound?
A: 33.7 µM (inactive)

Q: And the GI50 (MDA-MB-231)?
A: 42.4 µM (inactive)

Q: What about the GI50 (SK-OV-3) of the same compound?
A: 33.6 µM (inactive)

Q: What about the GI50 (UACC-62) of the same compound?
A: 24.5 µM (inactive)

Q: And the GI50 (NCI-H460)?
A: 48.1 µM (inactive)

Q: What about the GI50 (HL-60) of the same compound?
A: 18.3 µM (inactive)

Q: What about the GI50 (MDA-N) of the same compound?
A: 31.3 µM (inactive)

Q: And the GI50 (SK-MEL-28)?
A: 30 µM (inactive)

Q: And the GI50 (CCRF-CEM)?
A: 25.6 µM (inactive)

Q: What about the GI50 (786-0) of the same compound?
A: 24.7 µM (inactive)

Q: What about the GI50 (HCT-116) of the same compound?
A: 16 µM (inactive)

Q: What about the GI50 (SK-MEL-5) of the same compound?
A: 35 µM (inactive)

Q: What about the GI50 (ACHN) of the same compound?
A: 48 µM (inactive)

Q: What about the GI50 (U-251) of the same compound?
A: 26.1 µM (inactive)

Q: And the GI50 (T47D)?
A: 20.8 µM (inactive)

Q: What about the GI50 (SW-620) of the same compound?
A: 28.3 µM (inactive)

Q: And the GI50 (K562)?
A: 28.5 µM (inactive)

Q: And the GI50 (SN12C)?
A: 22.9 µM (inactive)

Q: And the GI50 (BT-549)?
A: 41.1 µM (inactive)

Q: What about the GI50 (HOP-62) of the same compound?
A: > 100 µM (inactive)

Q: What about the GI50 (RXF 393) of the same compound?
A: 16.1 µM (inactive)

Q: And the GI50 (HT-29)?
A: 15.8 µM (inactive)

Q: And the GI50 (TK-10)?
A: > 100 µM (inactive)

Q: And the GI50 (HCT-15)?
A: 27.4 µM

Q: And the GI50 (A549)?
A: 38.4 µM (inactive)

Q: What about the GI50 (HCC 2998) of the same compound?
A: > 100 µM (inactive)

Q: And the GI50 (UO-31)?
A: 36 µM (inactive)

Q: And the GI50 (NCI/ADR-RES)?
A: 24.5 µM (inactive)

Q: What about the GI50 (MOLT-4) of the same compound?
A: 20.4 µM (inactive)

Q: And the GI50 (LOX IMVI)?
A: 15.4 µM (inactive)

Q: And the GI50 (UACC-257)?
A: 56.1 µM (inactive)

Q: And the GI50 (IGROV-1)?
A: 31.2 µM (inactive)

Q: And the GI50 (M14)?
A: 38.6 µM (inactive)

Q: What about the GI50 (KM12) of the same compound?
A: 25.2 µM (inactive)

Q: What about the GI50 (EKVX) of the same compound?
A: 43.3 µM (inactive)

Q: What about the GI50 (OVCAR-4) of the same compound?
A: 31.5 µM (inactive)

Q: And the GI50 (NCI-H23)?
A: 38.4 µM (inactive)

Q: And the GI50 (SNB-19)?
A: 36.5 µM (inactive)

Q: And the GI50 (MCF7)?
A: 29 µM (inactive)

Q: And the GI50 (SF-295)?
A: 24.8 µM (inactive)

Q: And the GI50 (A498)?
A: > 100 µM (inactive)

Q: What about the GI50 (OVCAR-8) of the same compound?
A: 23.1 µM (inactive)

Q: And the GI50 (Hs-578T)?
A: 22.3 µM (inactive)

Q: What about the GI50 (SK-MEL-2) of the same compound?
A: 55.2 µM (inactive)

Q: What about the GI50 (COLO 205) of the same compound?
A: > 100 µM (inactive)
